Calls of active or inactive are those of the source. The calls are words filed in the database; no cut-off is given here.
Assays:
SARS-CoV-2 [1] = experiment: Antiviral activity against SARS CoV-2 replicon-based SRIP; type: functional, organism-based; conditions: Severe acute respiratory syndrome coronavirus 2
[2] = molecular target: Replicase polyprotein 1ab (Severe acute respiratory syndrome coronavirus 2) (UniProt P0DTD1); experiment: Inhibition of SARS CoV-2 RdRp at 10 uM incubated for 2 hrs by fluorescence based assay relative to control
SARS-CoV [3] = type: functional, organism-based; conditions: Severe acute respiratory syndrome-related coronavirus; Calu-3; dose <= 1.0 µM, time 120.0 hrs
SARS-CoV-2 [4] = type: functional, organism-based; conditions: Severe acute respiratory syndrome coronavirus 2; Calu-3; dose <= 1.0 µM, time 120.0 hrs
SARS-CoV-2 [5] = type: functional, organism-based; conditions: Severe acute respiratory syndrome coronavirus 2; Calu-3; dose <= 1.0 µM, time 96.0 hrs
SARS-CoV [6] = type: functional, organism-based; conditions: Severe acute respiratory syndrome-related coronavirus; Calu-3; dose <= 1.0 µM, time 96.0 hrs
in vitro = conditions: human, Calu-3 cells
[7] = Cytotoxicity against human Calu-3 cells assessed as cell viability incubated for 96 hrs by MTT assay; type: toxicity, cell-based
SARS-CoV-2 [8] = type: functional, organism-based
[9] = molecular target: Replicase polyprotein 1ab (Severe acute respiratory syndrome coronavirus 2) (UniProt P0DTD1); experiment: (§1) Inhibition of SARS CoV-2 RdRp incubated for 2 hrs by fluorescence based assay
[10] = molecular target: Replicase polyprotein 1ab (Severe acute respiratory syndrome coronavirus 2, UniProt P0DTD1); experiment: as §1
SARS-CoV [11] = type: functional, organism-based; conditions: Severe acute respiratory syndrome-related coronavirus

CCC(CC)COC(=O)[C@H](C)N[P@](=O)(OC[C@H]1O[C@@](C#N)(c2ccc3c(N)ncnn23)[C@H](O)[C@@H]1O)Oc1ccccc1 [REMDESIVIR]
EC50 (SARS-CoV-2 [1]): 170 nM

C=CCNC(=S)N1C[C@@H]2C[C@H](C1)c1ccc([N+](=O)[O-])c(=O)n1C2
inhibition [2]: < 38%

O=c1ccc(Cl)c2n1C[C@H]1C[C@@H]2CN(C(=S)Nc2ccccc2)C1
inhibition [2]: < 38%

Cn1cc(CNc2ccc3n(c2=O)C[C@H]2C[C@@H]3CN3CCCC[C@@H]23)c(=O)n(C)c1=O
inhibition [2]: < 38%

O=c1cccc2n1C[C@H]1C[C@@H]2CN(C(=S)Nc2ccccc2)C1
inhibition [2]: < 38%

CN1C[C@@H]2C[C@H](C1)c1ccc(NC/C=C/c3ccccc3)c(=O)n1C2
inhibition [2]: < 38%

CCOC(=O)CNC(=S)Nc1ccc2n(c1=O)C[C@H]1C[C@@H]2CN(C)C1
inhibition [2]: < 38%

CC(C)NC(=S)Nc1ccc2n(c1=O)C[C@H]1C[C@@H]2CN(C)C1
inhibition [2]: < 38%

CN1C[C@@H]2C[C@H](C1)c1ccc(NCc3ccccc3O)c(=O)n1C2
inhibition [2]: < 38%

CC(C)C[C@H](NC(=O)OCc1ccccc1)C(=O)N[C@@H](C[C@@H]1CCNC1=O)C(O)S(=O)(=O)O (some centres undefined)
EC50 (SARS-CoV-2 [1]): 170 nM

COC(=O)CN1C[C@@H]2C[C@H](C1)c1ccc(NCc3cn(C)c(=O)n(C)c3=O)c(=O)n1C2
inhibition [2]: < 38%

Cn1cc(CNc2ccc3n(c2=O)C[C@H]2C[C@@H]3CN(Cc3ccccc3)C2)c(=O)n(C)c1=O
Activity (SARS-CoV [3]): Active
inhibition [2]: 64%
Activity (SARS-CoV-2 [4]): Active
Activity (SARS-CoV-2 [5]): Active
Activity (SARS-CoV [6]): Active
selectivity ratio (in vitro): > 68
CC50 at 96 h [7]: > 100 µM
EC50 (SARS-CoV-2 [8]; Severe acute respiratory syndrome coronavirus 2, Calu-3, 96 h): 1470 nM
Activity (SARS-CoV-2 [8]; Severe acute respiratory syndrome coronavirus 2, Calu-3, dose 0.1-10 µM, time 96.0 hrs): Dose-dependent-effect
inhibition [9]: Dose-dependent-effect
IC50 [10]: 7.8 µM
EC50 (SARS-CoV [11]; Calu-3, 96 h): 120 nM
Activity (SARS-CoV [11]; Calu-3, dose 0.1-10 µM, time 96.0 hrs): Dose-dependent-effect
